The subject of experiment [1] is TAC-PH mice. Put plainly: Transverse aortic constriction (TAC) induced PH mouse model, BALB/cJ (Example 12). It counts as in vivo. Particulars: day 42, relative to TAC PBS. From the text:
The effects of an ActRIIA-mFc fusion polypeptide (SEQ ID NO: 56) was examined in a mouse model of left ventricular systolic dysfunction (also referred to as HErEF) of pulmonary hypertension (PH) and valvular heart disease. In this model, BALB/cJ mice underwent transverse aortic constriction (TAC) to induce left heart failure, and right heart and pulmonary remodeling. See, e.g., Xiong P Y. et al. Hypertension 2018, 71(1):34-55 and Chen Y. et al. Hypertension 2012, 59(6):1170-1178.
Forty-four BALB/cJ male mice (10 wks old) underwent TAC surgery and fourteen age-matched animals underwent a mock surgical procedure (Sham) at day 0. Two weeks after the surgery, TAC-PH mice were randomized into three groups. i) fourteen mice were injected subcutaneously with vehicle control (phosphate buffered saline (PBS)), twice weekly for 4 weeks starting from day 14 after surgery, “TAC PBS”; ii) fifteen mice were injected subcutaneously with ActRIIA-mFc at a dose of 3 mg/kg twice weekly for 4 weeks starting from day 14 after TAC surgery, “TAC ActRIIA-mFc 3 mpk”; and iii) fifteen mice were injected subcutaneously with ActRIIA-mFc at a dose of 10 mg/kg twice weekly for 4 weeks starting from day 14 after TAC surgery, “TAC ActRIIA-mFc 10 mpk.” At the end of the study, echocardiography and pressure-volume catheter were performed to measure left and right ventricular remodeling and functional changes before animals were euthanized for heart and lung collection. Hearts and lungs of each mouse were weighed, fixed in 10% formalin, embedded in paraffin, and sectioned for Masson's trichrome stain to assess fibrosis.
(§1) Prior to euthanasia, in vivo cardiac function was assessed by transthoracic echocardiography (Acuson P300, 18 MHz transducer; Siemens) in conscious mice. From left ventricle (LV) short axis view, M-mode echocardiogram was acquired to measure left ventricle end diastolic diameter (LVEDD), and left ventricle end systolic diameter (LVESD). Fractional shortening (FS) was calculated from the end-diastolic diameter (EDD) and end-systolic diameter (ESD) using the following equation: FS=100%×[(EDD−ESD)/EDD]. Early diastolic filling peak velocity (E), early diastolic mitral annular velocity (E′), and isovolumetric relaxation time (IVRT) were measured from the medial or septal wall at the mitral valve level from tissue Doppler image. LV diastolic function was assessed by measuring the E/E′ ratio and IVRT. Three to five beats were averaged for each mouse measurement. RV free wall thickness (RVFWT) was measured using M-mode in a modified parasternal long-axis view through the aortic valve. Pulmonary artery acceleration time (PAAT) was measured as the time from start to peak velocity of blood flow in the lumen of the main pulmonary artery distal to the pulmonary valve as obtained from the pulse-wave doppler recording.
On day 42, mice were anesthetized by an intraperitoneal injection of ketamine/xylazine (100/5 mg/kg) to evaluate left and right ventricular function by Millar pressure-volume conductance catheter. The respiration was supported by a small animal ventilator.
Thoracotomy was made through 4-5 intercostal space, and the heart was exposed. A pressure-volume catheter (1.0-Fr, PVR-1035, Millar Instruments, Houston, TX, USA) was inserted into the left ventricle and right ventricle from the apex. Ventricular pressure and volume were calculated with LabChart 7 software. Ejection fraction was derived. Afterwards, animals were euthanized for heart and lung collection. Cardiac hypertrophy was measured by heart weight (HW) normalized by tibial length (TL). Left ventricle (LV), right ventricle (RV) and lung of each mouse were separated, fixed in 10% formalin, embedded in paraffin, and sectioned for Masson's trichrome stain to assess fibrosis. Serum and urine samples were collected at the end of the study.

The test system of experiment [2] is TAC-PH mice. The experiment is described as follows: Transverse aortic constriction (TAC) induced PH mouse model, C57BL/6 (Example 9). Format: in vivo. As to conditions: 10 mg/kg s.c. twice weekly for 4 weeks from day 14 after TAC, day 42, relative to TAC-PH/PBS.
Excerpt: The effects of an ActRIIA-mFc fusion polypeptide (SEQ ID NO: 56) was examined in a mouse model of left ventricular systolic dysfunction (also referred to as HErEF) of pulmonary hypertension (PH). In this model, C57BL/6 mice underwent transverse aortic constriction (TAC) to induce left heart failure, and right heart and pulmonary remodeling. See, e.g., Xiong P Y, et al. Hypertension 2018, 71(1):34-55 and Chen Y, et al. Hypertension 2012, 59(6):1170-1178.
Twenty-six C57/B6 male mice (10 wks old) underwent TAC surgery and ten age-matched animals underwent a mock surgical procedure (Sham) at day 0. Two weeks after the surgery, TAC-PH mice were randomized into two groups. i) fourteen mice were injected subcutaneously with vehicle control (phosphate buffered saline (PBS)), twice weekly for 4 weeks starting from day 14 after surgery, “TAC-PH/PBS”: and a ii) twelve mice were injected subcutaneously with ActRIIA-mFc at a dose of 10 mg/kg twice weekly for 4 weeks starting from day 14 after TAC surgery, “TAC-PH/ActRII-mFc”. At the end of the study, echocardiography and pressure-volume catheter were performed to measure left and right ventricular remodeling and functional changes before animals were euthanized for heart and lung collection. Hearts and lungs of each mouse were weighed, fixed in 10% formalin, embedded in paraffin, and sectioned for Masson's trichrome stain to assess fibrosis.
as §1, with “Tricuspid annular plane systolic excursion (TAPSE), a parameter of global right ventricular function,” for “RV free wall thickness (RVFWT)”, “also measured.” for “measured using M-mode in a modified parasternal long-axis view through the aortic valve. Pulmonary artery acceleration time (PAAT) was measured as the time from start to peak velocity of blood flow in the lumen of the main pulmonary artery distal to the pulmonary valve as obtained from the pulse-wave doppler recording.”
On day 42, mice were anesthetized by an intraperitoneal injection of ketamine/xylazine (100/5 mg/kg) to evaluate left and right ventricular function by Millar pressure-volume conductance catheter. The respiration was supported by a small animal ventilator. Thoracotomy was made through 4-5 intercostal space, and the heart was exposed. A pressure-volume catheter (1.0-Fr, PVR-1035, Millar Instruments, Houston, TX, USA) was inserted into the left ventricle and right ventricle from the apex. Ventricular pressure and volume were calculated with LabChart 7 software. Stroke work, ejection fraction, maximum and minimum rate of pressure development (+dp/dtm, −dp/dtm) were derived.

As to “ActRIIA-mFc: ActRIIA-mFc fusion polypeptide (SEQ ID NO: 56); extracellular domain fused to murine IgG2a Fc domain with a linker”, the LV ejection fraction entry is listed as “restored LV ejection fraction” with TAC-PH mice [1] (3 mpk or 10 mpk s.c. twice weekly for 4 weeks from day 14 after TAC, FIG. 45) and “restored LV ejection fraction” in the experiment with TAC-PH mice [2] (FIG. 17). In the experiment with TAC-PH mice [1] (3 mpk or 10 mpk s.c. twice weekly for 4 weeks from day 14 after TAC, FIG. 46), the “cardiac hypertrophy, heart weight/tibia length (HW/TL)” value is reported as “significantly reduced cardiac hypertrophy”. The IVRT entry in the experiment on TAC-PH mice [1] (3 mpk or 10 mpk s.c. twice weekly for 4 weeks from day 14 after TAC, FIG. 48) is reported as “reduced IVRT”. In addition, the RVSP result with TAC-PH mice [1] (3 mpk or 10 mpk s.c. twice weekly for 4 weeks from day 14 after TAC, FIG. 49) was “reduced RVSP”. For the same substance, the RVFWT entry in the experiment on TAC-PH mice [1] (3 mpk or 10 mpk s.c. twice weekly for 4 weeks from day 14 after TAC, FIG. 50) is on record as “significantly reduced elevated RVFWT”. The PAAT result with TAC-PH mice [1] (3 mpk or 10 mpk s.c. twice weekly for 4 weeks from day 14 after TAC, FIG. 51) is reported as “increased PAAT”. Moreover, in the experiment on TAC-PH mice [1] (3 mpk or 10 mpk s.c. twice weekly for 4 weeks from day 14 after TAC, FIG. 52), the LV fibrosis entry is on record as “significantly reduced”. In addition, in the experiment on TAC-PH mice [1] (3 mpk or 10 mpk s.c. twice weekly for 4 weeks from day 14 after TAC, FIG. 53), the RV fibrosis entry was “significantly reduced”. Further, the lung fibrosis entry in the experiment on TAC-PH mice [1] (3 mpk or 10 mpk s.c. twice weekly for 4 weeks from day 14 after TAC, FIG. 54) is “significantly reduced lung fibrosis”; in the experiment with TAC-PH mice [2] (FIG. 25), “significantly reduced lung fibrosis”. Besides, the “E/E′ ratio” value in the experiment on TAC-PH mice [1] (3 mpk s.c. twice weekly for 4 weeks from day 14 after TAC, FIG. 47) is listed as “reduced E/E′ ratio at 3 mpk”; in the experiment on TAC-PH mice [2] (FIG. 18), “reduced E/E′ ratio”. Also, in the experiment on TAC-PH mice [2] (FIG. 15), the “cardiac hypertrophy, heart weight/body weight (HW/BW)” value is recorded as “significantly reduced cardiac hypertrophy”. The “fractional shortening (FS)” value with TAC-PH mice [2] (FIG. 16) is “elevated FS”. For the same substance, the “isovolumetric relaxation time (IVRT)” value with TAC-PH mice [2] (FIG. 19) is “reduced IVRT”. Moreover, the “right ventricle free wall thickness (RVFWT)” value in the experiment on TAC-PH mice [2] (FIG. 20) is “significantly reduced elevated RVFWT”. Besides, in the experiment with TAC-PH mice [2] (FIG. 21), the “tricuspid annular plane systolic excursion (TAPSE)” value was “increased reduced TAPSE”. Moreover, in the experiment with TAC-PH mice [2] (FIG. 22), the RV stroke work result is recorded as “reduced elevated RV stroke work”. In the experiment with TAC-PH mice [2] (FIG. 23), the “minimum rate of pressure development in RV (−dp/dTmin)” value is “decreased increased RV−dp/dTmin”. Besides, the “lung weight (LW/TL)” value in the experiment on TAC-PH mice [2] (FIG. 24) is recorded as “decreased lung weight”.

Values taken from patent US20240181007A1, “COMPOSITIONS AND METHODS FOR TREATING PULMONARY HYPERTENSION” (Acceleron Pharma Inc., priority 2021, published 2024).
